Source: patent US20260242398A1, “BENZOPYRIMIDIN-4(3H)-ONES AS PI3K INHIBITORS” (OnKure, Inc., priority 2022, published 2026)
Like-named read-outs stand apart in the source and are kept apart here.

What was measured:
Type in all cases: cell-based
[1] = tested on: SKBR3 cells express WT PI3Ka; experiment: In vitro cell proliferation (CellTiter-Glo, 72 hours), SKBR3 cells
Description: (§1) In Vitro Cell Proliferation: Determination of EC50 Values for Inhibition of Proliferation in T47D Cells Expressing Mutant PI3Ka (H1047R) Mutation and SKBR3 Cells Express WT PI3Ka.
(§2) T47D or SKBR3 cells were trypsinized, resuspended in culture media and seeded onto assay ready plates. T47D culture media consisted of RPMI, 10% FBS and Insulin (0.2 units/mL). SKBR3 culture media consisted of McCoys 5a and 10% FBS. Cells were seeded at a density of 1,500 cells/well and dispensed in 50 uL onto 384 well assay ready plates (Corning, 89089-790). Assay ready plates had previously been stamped with 10-point dilutions of compounds of interest, as well as controls. The Echo655 is used to stamp plates at 40 nL of compound or DMSO. Cells were grown for 72 hours at 37° Celsius and 5% CO2. After 72 hours, cells were equilibrated at room temperature for 15 minutes. 30 uL of CellTiter-Glo reagent is added to the plate, which is then shaken for 30 minutes at temperature at 300-500 rpm. Cells are then read on an Envision plate reader. The percentage of inhibition of proliferation was calculated using the following formula: % Inhibition=100×(LumD−LumSample)/(LumD−LumInh), where D is obtained from cells treated with 0.1% DMSO only; Inh is obtained from cells treated with 10 uM Alpelisib. The effective concentration achieving 50% inhibition of proliferation (EC50) is calculated by fitting the Curve using XWfit (v5.3.1.3), equation 201: Y=Bottom+(Top−Bottom)/(1+10^((Log EC50−X)*HillSlope)).

[2] = tested on: T47D cells expressing mutant PI3Ka (H1047R); experiment: In vitro cell proliferation (CellTiter-Glo, 72 hours), T47D cells; conditions: inhibition of proliferation, read-out: Avg T-47D EC50
Description: as §1, §2

[3] = tested on: phosphorylation of AKT (pAKT) in SKBR3 cells express WT PI3Ka; experiment: In vitro cell pAKT (Ser473) HTRF, SKBR3 cells
Description: (§3) In Vitro Cell pAKT: Determination of IC50 Values for Inhibition of Phosphorylation of AKT (pAKT) in T47D Cells Expressing Mutant PI3Ka (H1047R) Mutation and SKBR3 Cells Express WT PI3Ka.
(§4) T47D or SKBR3 cells were trypsinized, resuspended in culture media and seeded onto assay ready plates. T47D culture media consisted of RPMI, 10% FBS and Insulin (0.2 units/mL). SKBR3 culture media consisted of McCoy's 5a and 10% FBS. Cells were seeded at a density of 5000 cells/well and dispensed in 12.5 uL onto 384 well assay ready plates (Perkin Elmer, 6008238)). Assay ready plates had previously been stamped with 10-point dilutions of compounds of interest, as well as controls. The Echo655 is used to stamp plates at 12.5 nL of compound or DMSO. Cells were grown for 6 hour at 37° Celsius and 5% CO2. After 6 hour, 4 uL of Lysis buffer reagent was added to the plate, which was then centrifuged for 1 minute at 1000 rpm. Then the plate was incubated at room temperature for 30 minutes. After 30 minutes, 4 uL of antibody mix containing Eu Cryptate, d2 Cryptate, and detection buffer, was added to the plate. The plate was centrifuged for 1 minute at 1000 rpm and then incubated overnight at room temperature. The plate was read on an Envision plate reader using the HTRF protocol. The percentage of inhibition of AKT phosphorylation was calculated using the following formula: % Inhibition=100×(pAKTHC−pAKTSample)/(pAKTHC−pAKTLC)), where pAKTHC is obtained from cells treated with 0.1% DMSO only; pAKTLC is obtained from cells treated with 10 uM Alpelisib. The IC50 (concentration achieving 50% inhibition of pAKT) is calculated by fitting the Curve using XWfit (v5.3.1.3), equation 201: Y=Bottom+(Top−Bottom)/(1+10^((Log IC50−X)*HillSlope)).

[4] = tested on: phosphorylation of AKT (pAKT) in T47D cells expressing mutant PI3Ka (H1047R); experiment: In vitro cell pAKT (Ser473) HTRF, T47D cells
Description: as §3, §4

[5] = inhibition of pAKT, 6 hour, read-out: Avg T-47D IC50
[6] = Homo sapiens, SK-BR-3, 72 h, inhibition of proliferation
[7] = Homo sapiens, SK-BR-3, 6 h, inhibition of pAKT

Row | SMILES | EC50 [2] [µM] | EC50 ([1]; inhibition of proliferation) [µM] | IC50 ([3]; inhibition of pAKT, 6 hour) [µM] | IC50 [4, 5] [µM] | EC50 [1, 6] [µM] | IC50 [3, 7] [µM] | EC50 ([2]; Homo sapiens, T47D, 72 h) [µM] | IC50 ([4]; Homo sapiens, T47D, 6 h, inhibition of pAKT, read-out: Avg T-47D IC50) [µM] | EC50 ([1]; Homo sapiens, SK-BR-3, inhibition of proliferation) [µM] | IC50 ([3]; Homo sapiens, SK-BR-3, inhibition of pAKT, 6 hour) [µM] | IC50 ([4]; read-out: Avg T-47D IC50, inhibition of pAKT, 6 hour) [µM]
1 | Cc1cc(C(C)Nc2ccccc2C(=O)O)c2nc(N3CC[Si](C)(C)CC3)n(C)c(=O)c2c1 (single isomer, unassigned) [Example 1, 2-((1-(2-(4,4-dimethyl-1,4-azasilinan-1-yl)-3,6-dimethyl-4-oxo-3,4-dihydroquinazolin-8-yl)ethyl)amino)benzoic acid] | 0.5 to 2 | – | – | – | – | – | – | – | 2 to 15 | > 15 | 0.001 to 1
2 | CC(Nc1ccc(F)cc1C(=O)O)c1cc(F)cc2c(=O)n(C)c(N3CCN(CC(F)(F)F)CC3)nc12 (single isomer, unassigned) [Example 34, 5-fluoro-2-((1-(6-fluoro-3-methyl-4-oxo-2-(4-(2,2,2-trifluoroethyl)piperazin-1-yl)-3,4-dihydroquinazolin-8-yl)ethyl)amino)benzoic acid] | > 15 | > 15 | 5 to 15 | > 15 | – | – | – | – | – | – | –
3 | CC(Nc1ccccc1C(=O)O)c1cc(C(F)(F)F)cc2c(=O)n(C)c(N3CCN(CC(F)(F)F)CC3)nc12 (single isomer, unassigned) [Example 37, 2-((1-(3-methyl-4-oxo-2-(4-(2,2,2-trifluoroethyl)piperazin-1-yl)-6-(trifluoromethyl)-3,4-dihydroquinazolin-8-yl)ethyl)amino)benzoic acid] | 0.5 to 2 | – | – | 0.001 to 1 | 2 to 15 | > 15 | – | – | – | – | –
4 | Cc1cc(C(C)Nc2ccccc2C(=O)O)c2nc(SCc3ccc(Cl)c(OC(F)(F)F)c3)n(C)c(=O)c2c1 (single isomer, unassigned) [Example 31, 2-((1-(2-((4-chloro-3-(trifluoromethoxy)benzyl)thio)-3,6-dimethyl-4-oxo-3,4-dihydroquinazolin-8-yl)ethyl)amino)benzoic acid] | – | – | – | – | 2 to 15 | > 15 | 2 to 15 | > 15 | – | – | –
5 | CC(Nc1ccc(F)cc1C(=O)O)c1cc(F)cc2c(=O)n(C)c(N3CCN(CC(F)(F)F)CC3)nc12 (single isomer, unassigned) [Example 33, 5-fluoro-2-((1-(6-fluoro-3-methyl-4-oxo-2-(4-(2,2,2-trifluoroethyl)piperazin-1-yl)-3,4-dihydroquinazolin-8-yl)ethyl)amino)benzoic acid] | 0.001 to 0.5 | – | > 15 | 0.001 to 1 | > 15 | – | – | – | – | – | –

Further lines, with some results ahead:

Row | EC50 [2] [µM] | EC50 ([1]; inhibition of proliferation) [µM] | IC50 ([3]; inhibition of pAKT, 6 hour) [µM] | IC50 [4, 5] [µM] | EC50 [1, 6] [µM] | IC50 [3, 7] [µM] | EC50 ([2]; Homo sapiens, T47D, 72 h) [µM] | IC50 ([4]; Homo sapiens, T47D, 6 h, inhibition of pAKT, read-out: Avg T-47D IC50) [µM] | SMILES | EC50 ([1]; Homo sapiens, SK-BR-3, inhibition of proliferation) [µM] | IC50 ([3]; Homo sapiens, SK-BR-3, inhibition of pAKT, 6 hour) [µM] | IC50 ([4]; read-out: Avg T-47D IC50, inhibition of pAKT, 6 hour) [µM]
6 | 2 to 15 | 2 to 15 | > 15 | > 15 | – | – | – | – | Cc1cc(C(C)Nc2ccccc2C(=O)O)c2nc(N3Cc4ccc(Cl)cc4C3)n(C)c(=O)c2c1 (single isomer, unassigned) [Example 10, 2-((1-(2-(5-chloroisoindolin-2-yl)-3,6-dimethyl-4-oxo-3,4-dihydroquinazolin-8-yl)ethyl)amino)benzoic acid] | – | – | –
7 | 0.001 to 0.5 | – | – | 0.001 to 1 | > 15 | > 15 | – | – | Cc1cc(C(C)Nc2ccccc2C(=O)O)c2nc(N3Cc4ccc(C#N)cc4C3)n(C)c(=O)c2c1 (single isomer, unassigned) [Example 17, 2-((1-(2-(5-cyanoisoindolin-2-yl)-3,6-dimethyl-4-oxo-3,4-dihydroquinazolin-8-yl)ethyl)amino)benzoic acid] | – | – | –
8 | 2 to 15 | > 15 | – | > 15 | – | > 15 | – | – | Cc1cc(C(C)Nc2ccc(Cl)cc2C(=O)O)c2nc(N3Cc4ccc(F)cc4C3)n(C)c(=O)c2c1 (single isomer, unassigned) [Example 13, 5-chloro-2-((1-(2-(5-fluoroisoindolin-2-yl)-3,6-dimethyl-4-oxo-3,4-dihydroquinazolin-8-yl)ethyl)amino)benzoic acid] | – | – | –
9 | 0.5 to 2 | – | – | 0.001 to 1 | > 15 | > 15 | – | – | COc1ccc2c(c1)CN(c1nc3c(C(C)Nc4ccccc4C(=O)O)cc(C)cc3c(=O)n1C)C2 (single isomer, unassigned) [Example 7, 2-((1-(2-(5-methoxyisoindolin-2-yl)-3,6-dimethyl-4-oxo-3,4-dihydroquinazolin-8-yl)ethyl)amino)benzoic acid] | – | – | –
